Laboratory results taken from paper PMC9610943, “Truncated Pleurocidin Derivative with High Pepsin Hydrolysis Resistance to Combat Multidrug-Resistant Pathogens” (Pharmaceutics, 2022).
Where no end group is shown, it is not given here.

Tests used:
[1] = test system: P. cibarius HNCF44W (blaNDM-1+ tet(X6)); assay: organism not typed; format: cell-based
Experimental: (§1) S. aureus ATCC 29213, E. coli ATCC 25922, S. enteritidis ATCC 13076 and A. baumannii ATCC 19609 were obtained from the American Type Culture Collection (ATCC). The remaining strains used in the experiment were all preserved strains in our laboratory. All strains were cultured in nutrient broth overnight to the logarithmic phase at 37 °C prior to each experiment.
(§2) The MICs of all drugs were determined by micro-broth dilution method according to CLSI 2018 guidelines. Briefly, a single colony of the bacterial strain was transferred to 1 mL of Mueller Hilton broth (MHB) and overnight at 37 °C and then 10 μL were cultured in a new 1 mL medium for 4 to 6 h, and then the bacterial culture at the logarithmic phase was diluted to 1 × 10^6 CFUs/mL. The assay was performed by adding 100 μL of each peptide solution at various concentrations (0.25 to 128 μg/mL) and 100 μL of diluted bacterial culture to different wells of a 96-well microtiter plate (Corning, NY, USA). After incubation at 37 °C for 16 to 18 h and then read its MIC value. MIC value is defined as the lowest drug concentration without visible bacteria.

E. coli B2 = format: cell-based
Experimental: as §2
(§3) Then, the antibacterial activity of the peptides affected by different temperatures and pH were determined according to the determination steps of MICs test.
(§4) In MHB medium, Na^+, K^+, Mg^2+ and Ca^2+ with the final concentrations of 10 mM, fetal bovine serum, plasma or DMEM medium (Hyclone, Logan, UT, USA) with the final concentrations of 10% was added, and then MIC values were measured to evaluate the effects of different cations, serum and plasma on the antibacterial activity of peptides.
(§5) The peptide was incubated with protease (pepsin, trypsin and papain) (Solarbio, Beijing, China) with a final concentration of 1 mg/mL at 37 °C for 1 h, then the mixture of peptide and protease was heated at 100 °C for 30 min, then centrifuged at 13,000× g for 30 min, and the supernatant was taken for MIC determination.

E. coli ATCC 25922 = assay: microbe, parasite or virus in culture; format: cell-based; settings: ATCC 25922
Experimental: as §1, §2

[2] = test system: E. faecalis A4 (VRE, VanA); assay: microbe, parasite or virus in culture; format: cell-based; settings: A4 (VRE, VanA)
Experimental: as §1, §2

[3] = test system: E. coli B2 (blaNDM-5 + mcr-1); assay: microbe, parasite or virus in culture; format: cell-based; settings: B2 (blaNDM-5 + mcr-1)
Experimental: as §1, §2

S. aureus G16 (RIF^R) = assay: microbe, parasite or virus in culture; format: cell-based; settings: S. aureus G16 (RIF^R); micro-broth dilution CLSI 2018, MHB, 37 °C, 16 to 18 h
Experimental: as §1, §2

E. coli B3-1 (tet(X4)) = assay: microbe, parasite or virus in culture; format: cell-based; settings: B3-1 (tet(X4))
Experimental: as §1, §2

E. coli 1F28 (tet(X4)) = assay: microbe, parasite or virus in culture; format: cell-based; settings: 1F28 (tet(X4))
Experimental: as §1, §2

E. coli CP131 (mcr-3) = assay: microbe, parasite or virus in culture; format: cell-based; settings: CP131 (mcr-3)
Experimental: as §1, §2

S. aureus ATCC 29213 = assay: microbe, parasite or virus in culture; format: cell-based; settings: ATCC 29213
Experimental: as §1, §2

[4] = test system: S. aureus 215 (cfr + LZD^R); assay: microbe, parasite or virus in culture; format: cell-based; settings: S. aureus 215 (cfr + LZD^R); micro-broth dilution CLSI 2018, MHB, 37 °C, 16 to 18 h
Experimental: as §1, §2

E. coli G6 (blaNDM-5) = assay: microbe, parasite or virus in culture; format: cell-based; settings: G6 (blaNDM-5)
Experimental: as §1, §2

P. aeruginosa PA14 = assay: microbe, parasite or virus in culture; format: cell-based; settings: PA14
Experimental: as §1, §2

[5] = test system: S. enteritidis ATCC 13076; assay: microbe, parasite or virus in culture; format: cell-based; settings: ATCC 13076
Experimental: as §1, §2

E. coli G92 (mcr-1) = assay: microbe, parasite or virus in culture; format: cell-based; settings: G92 (mcr-1)
Experimental: as §1, §2

E. coli C3 (blaNDM-1) = assay: microbe, parasite or virus in culture; format: cell-based; settings: C3 (blaNDM-1)
Experimental: as §1, §2

[6] = test system: P. aeruginosa (VIM + tmexCD1-torJ1); assay: microbe, parasite or virus in culture; format: cell-based; settings: VIM + tmexCD1-torJ1
Experimental: as §1, §2

A. baumannii ATCC 19609 = assay: microbe, parasite or virus in culture; format: cell-based; settings: ATCC 19609
Experimental: as §1, §2

MRSA 1530 = assay: microbe, parasite or virus in culture; format: cell-based, Staphylococcus aureus; settings: 1530
Experimental: as §1, §2

MRSA T144 [7] = assay: microbe, parasite or virus in culture; format: cell-based, Staphylococcus aureus; settings: T144
Experimental: as §1, §2

MRSA T144 [8] = format: cell-based, Staphylococcus aureus
Experimental: as §2, §3, §4, §5

GWKSFFKKWKHVWK [GK-2]
MIC [1]: 8 µg/mL | MIC after treatment at 121 °C (E. coli B2; B2): 2 µg/mL | MIC in DMEM (10%) (E. coli B2; B2): 4 µg/mL | MIC in Plasma (10%) (E. coli B2; B2): 0.5 µg/mL | MIC in Serum (10%) (E. coli B2; B2): 4 µg/mL | MIC in presence of Ca^2+ (E. coli B2; B2): >128 µg/mL | MIC in presence of K^+ (E. coli B2; B2): 2 µg/mL | MIC in presence of Mg^2+ (E. coli B2; B2): 32 µg/mL | MIC in presence of Na^+ (E. coli B2; B2): 2 µg/mL | MIC, Control (E. coli B2; B2): 2 µg/mL | MIC after Papain treatment (E. coli B2; B2, 1 h): >128 µg/mL | MIC after Pepsin treatment (E. coli B2; B2, 1 h): 128 µg/mL | MIC after Trypsin treatment (E. coli B2; B2, 1 h): >128 µg/mL | MIC after treatment at 40 °C (E. coli B2; B2, 1 h): 2 µg/mL | MIC after treatment at 60 °C (E. coli B2; B2, 1 h): 4 µg/mL | MIC after treatment at 80 °C (E. coli B2; B2, 1 h): 2 µg/mL | MIC after treatment at 100 °C (E. coli B2; B2, 1 h): 2 µg/mL | MIC after treatment at pH 2 (E. coli B2; B2, 1 h, pH 2): 2 µg/mL | MIC after treatment at pH 4 (E. coli B2; B2, 1 h, pH 4): 4 µg/mL | MIC after treatment at pH 6 (E. coli B2; B2, 1 h, pH 6): 2 µg/mL | MIC after treatment at pH 8 (E. coli B2; B2, 1 h, pH 8): 2 µg/mL | MIC after treatment at pH 10 (E. coli B2; B2, 1 h, pH 10): 2 µg/mL | MIC after treatment at pH 12 (E. coli B2; B2, 1 h, pH 12): 2 µg/mL | MIC (E. coli ATCC 25922): 8 µg/mL | MIC [2]: 16 µg/mL | MIC [3]: 2 µg/mL | MIC (S. aureus G16 (RIF^R)): 8 µg/mL | MIC (E. coli B3-1 (tet(X4))): 4 µg/mL | MIC (E. coli 1F28 (tet(X4))): 16 µg/mL | MIC (E. coli CP131 (mcr-3)): 2 µg/mL | MIC (S. aureus ATCC 29213): 4 µg/mL | MIC [4]: 4 µg/mL | MIC (E. coli G6 (blaNDM-5)): 2 µg/mL | MIC (P. aeruginosa PA14): 16 µg/mL | MIC [5]: 4 µg/mL | MIC (E. coli G92 (mcr-1)): 2 µg/mL | MIC (E. coli C3 (blaNDM-1)): 2 µg/mL | MIC [6]: 16 µg/mL | MIC (A. baumannii ATCC 19609): 8 µg/mL | MIC (MRSA 1530): 32 µg/mL | MIC (MRSA T144 [7]): 8 µg/mL | MIC after treatment at 121 °C (MRSA T144 [8]; T144): 4 µg/mL | MIC in DMEM (10%) (MRSA T144 [8]; T144): 4 µg/mL | MIC in Plasma (10%) (MRSA T144 [8]; T144): 4 µg/mL | MIC in Serum (10%) (MRSA T144 [8]; T144): 8 µg/mL | MIC in presence of Ca^2+ (MRSA T144 [8]; T144): >128 µg/mL | MIC in presence of K^+ (MRSA T144 [8]; T144): 4 µg/mL | MIC in presence of Mg^2+ (MRSA T144 [8]; T144): 4 µg/mL | MIC in presence of Na^+ (MRSA T144 [8]; T144): 2 µg/mL | MIC, Control (MRSA T144 [8]; T144): 8 µg/mL | MIC after Papain treatment (MRSA T144 [8]; T144, 1 h): >128 µg/mL | MIC after Pepsin treatment (MRSA T144 [8]; T144, 1 h): 64 µg/mL | MIC after Trypsin treatment (MRSA T144 [8]; T144, 1 h): >128 µg/mL | MIC after treatment at 40 °C (MRSA T144 [8]; T144, 1 h): 2 µg/mL | MIC after treatment at 60 °C (MRSA T144 [8]; T144, 1 h): 4 µg/mL | MIC after treatment at 80 °C (MRSA T144 [8]; T144, 1 h): 2 µg/mL | MIC after treatment at 100 °C (MRSA T144 [8]; T144, 1 h): 4 µg/mL | MIC after treatment at pH 2 (MRSA T144 [8]; T144, 1 h, pH 2): 4 µg/mL | MIC after treatment at pH 4 (MRSA T144 [8]; T144, 1 h, pH 4): 4 µg/mL | MIC after treatment at pH 6 (MRSA T144 [8]; T144, 1 h, pH 6): 4 µg/mL | MIC after treatment at pH 8 (MRSA T144 [8]; T144, 1 h, pH 8): 4 µg/mL | MIC after treatment at pH 10 (MRSA T144 [8]; T144, 1 h, pH 10): 4 µg/mL | MIC after treatment at pH 12 (MRSA T144 [8]; T144, 1 h, pH 12): 4 µg/mL
